Test results published in patent US20240182470A1, “KRASG12C MUTANT PROTEIN INHIBITOR, PREARATION AND USE THEREOF” (YA THERAPEUTICS INC, priority 2021, published 2024).

These molecules were tested on H358 (KRAS G12C mutant) cells (assay: Tumor cell proliferation inhibition assay (Cell Titer-Glo, 72 h)). Conditions: inhibition of tumor cell proliferation, 72 hours with compound, 10% fetal bovine serum; read-out: NCI-H538 IC50(nm).
Assay type: cell-based
Procedure: The H358 (KRAS G^12C mutant) cells were digested, centrifuged and resuspended, and the cell density was measured with a Scepter automatic cell counter. The cells were diluted to a solution containing 44,000 cells per milliliter, and the density-adjusted cell solution was 90 microliters per well. into a 96-well culture plate. The 96-well plate was placed in a 37° C., 5% CO2 incubator. After the cells were cultured for 24 hours, different concentrations of the compounds to be tested were added. The cells were incubated with the compounds for 72 hours in the presence of 10% fetal bovine serum. Glo Luminescent Cell Viability Assay Kit (see manufacturer's instructions for details) was used to measure ATP content to assess cell growth inhibition. Briefly, 30 μl of Cell Titer-Glo reagent was added to each well, and the plate was shaken for 10 minutes to induce cell lysis. Fluoroskan
Ascent FL (Thermo) assay was used to record the fluorescent signal, and the maximum signal value was obtained from cells treated with dimethyl sulfoxide for 72 hours. The minimum signal value was obtained from the medium alone (the number of cells was zero), and the % inhibition rate=(the maximum signal value compound signal value)/(the maximum signal value—the minimum signal value×100%, and the data were processed using Graphpadprism 5 software. By sigmoid Dose-response curve fitting to calculate the IC50 value. “A” means IC50≤50 nM; “B” means 50<IC50≤500 nM; “C” means 500<IC50≤2000 nM; “D” means 2000 nM<IC50

| Molecule | IC50 |
| --- | --- |
| C=CC(=O)N1CCN(c2nc(OCC34CCCN3CCC4)nc3c(F)c(-c4cc(O)cc5cccc(F)c45)ccc23)[C@H](C)C1 [Compound 49, 7-(3-Hydroxy-8-fluoronaphthyl)-8-fluoro-4-(((R)-4-acryloyl-2-methylpiperazine)-1-yl)-2-((tetrahydro-1H-pyrinyl-7a(5H)-yl)methoxy)quinazoline] | ≤ 50 nM |
| C=C(F)C(=O)N1CCN(c2nc(OC[C@@]34CCCN3C[C@H](F)C4)nc3nc(-c4cc(O)cc5cccc(F)c45)c(F)cc23)C[C@@H]1CC#N [Compound 33, 7-(3-Hydroxy-8-fluoronaphthyl)-6-fluoro-4-(((S)-4-(2-fluoroacryloyl)-3-carbonitrileethylpiperazine)-1-yl)-2-(((2R,7aS)-2-fluorotetrahydro-1H-pyrincycl-7a(5H)-yl)methoxy)pyridine[2,3-d]lopyrimidine] | ≤ 50 nM |
| 7-(8-Methylnaphthalene)-4-(((R)-4-Acryloyl-2-methylpiperazine)-1-yl)-2-(((1-(pyrrolidin-1-yl)methylcyclopropan-1-yl)methoxy)pyridine[2,3-d]lopyrimidine [Compound 17] | ≤ 50 nM |
| 7-(8-Methylnaphthyl)-6-fluoro-4-(((R)-4-acryloyl-2-methylpiperazine)-1-yl)-1-y1)-2-(((S)-2,2-difluorotetrahydro-1H-pyrincyclo-7a(5H)-yl)methoxy)pyridine[2,3-d]lopyrimidine [Compound 80] | ≤ 50 nM |
| C=CC(=O)N1CCN(c2nc(OC[C@@]34CCCN3CC(F)(F)C4)nc3c(F)c(-c4cccc5cccc(C)c45)ccc23)C[C@@H]1CC#N [Compound 67] | ≤ 50 nM |
| 7-(8-Chloronaphthalene)-4-(((R)-4-Acryloyl-2-methylpiperazine)-1-yl)-24(1-(N,N-dimethylamino)) methylcyclopropan-1-yl)methoxy)pyridine[2,3-d]lopyrimidine [Compound 23] | ≤ 50 nM |
| C=CC(=O)N1C2CCC1CN(c1nc(OC[C@@]34CCCN3C[C@H](F)C4)nc3nc(-c4cccc5cccc(F)c45)c(F)cc13)C2 [Compound 27] | ≤ 50 nM |
| C=CC(=O)N1CCN(c2nc(OC[C@@]34CCCN3C[C@H](F)C4)nc3nc(-c4cc(O)cc5cccc(F)c45)c(F)cc23)C[C@@H]1CC#N [Compound 35, 7-(3-Hydroxy-8-fluoronaphthyl)-6-fluoro-4-(((S)-4-acryloyl-3-carbonitrileethylpiperazine)-1-yl)-2-(((2R,7aS)-2-fluorotetrahydro-1H-pyrinyl-7a(5H)-yl)methoxy)pyridine[2,3-d]lopyrimidine] | ≤ 50 nM |
| 7-(8-Methylnaphthyl)-6-fluoro-4-(((S)-4-(2-fluoroacryloyl)-3-carbonitrileethylpiperazine)-1-yl)-2-(((2R,7aS)-2-fluorotetrahydro-1H-pyrinyl-7a(5H)-yl)methoxy)pyridine[2,3-d]lopyrimidine [Compound 82] | ≤ 50 nM |
| 7-(8-Fluoronaphthyl)-6-fluoro-4-(((S)-4-(2-acryloyl)-3-carbonitrileethylpiperazine)-1-yl)-2-((((S)-1-(methyl-d3)pyrrolidin-2-yl)methoxy)pyridine[2,3-d]lopyrimidine [Compound 9] | ≤ 50 nM |
| C=C(F)C(=O)N1C2CCC1CN(c1nc(OC[C@@]34CCCN3C[C@H](F)C4)nc3nc(-c4cc(O)cc5cccc(F)c45)c(F)cc13)C2 [Compound 32, 7-(3-Hydroxy-8-fluoronaphthyl)-6-fluoro-4-(8-(2-fluoroacryloyl)-3,8-diazabicyclo[3.2.1]octan-3-yl)-2-(((2R,7aS)-2-fluorotetrahydro-1H-pyrincycl-7a(5H)-yl)methoxy)pyridine[2,3-d]lopyrimidine] | ≤ 50 nM |
| C=CC(=O)N1CCN(c2nc(OC[C@@]34CCCN3C[C@H](F)C4)nc3nc(-c4cccc5cccc(F)c45)c(F)cc23)[C@H](C)C1 [Compound 26, 7-(8-Fluoronaphthyl)-6-fluoro-4-(((R)-4-acryloyl-2-methylpiperazine)-1-yl)-2-(((2R,7aS)-2-Fluorotetrahydro-1H-pyrincycl-7a(5H)-yl)methoxy)pyridine[2,3-d]lopyrimidine] | ≤ 50 nM |
| C=CC(=O)N1CCN(c2nc(OC[C@@]34CCCN3C[C@H](F)C4)nc3c(F)c(-c4cccc5cccc(F)c45)ccc23)[C@H](C)C1 [Compound 47, 7-(8-Fluoronaphthyl)-8-fluoro-4-(((R)-4-acryloyl-2-methylpiperazine)-1-yl)-2-(((2R,7aS)-2-fluorotetrahydro-1H-pyrincyclo-7a(5H)-yl)methoxy)quinazoline] | ≤ 50 nM |
| 7-(8-Methylnaphthyl)-8-fluoro-4-(((R)-4-acryloyl-2-methylpiperazine)-1-yl)-2-(((S)-2,2-difluorotetrahydro-1H-pyrinyl-7a(5H)-yl)methoxy)quinazoline [Compound 62] | ≤ 50 nM |
| 6-Chloro-7-(3-hydroxy-8-fluoronaphthyl)-8-fluoro-4-(((S)-4-(2-fluoroacryloyl)-3-carbonitrileethylpiperazine)-1-yl)-2-(((S)-2,2-difluorotetrahydro-1H-pyrincycline-7a(5H)-yl)methoxy)quinazoline [Compound 77] | ≤ 50 nM |
| 7-(8-Methylnaphthyl)-4-(((R)-4-acryloyl-2-methylpiperazine)-1-yl)-2-(((S)-2,2-difluoro tetrahydro-1H-pyrincycl-7a(5H)-yl)methoxy)pyridine[2,3-d]lopyrimidine [Compound 87] | ≤ 50 nM |
| C=C(F)C(=O)N1CCN(c2nc(OC[C@@]34CCCN3CC(F)(F)C4)nc3nc(-c4cc(O)cc5cccc(F)c45)c(F)cc23)C[C@@H]1CC#N [Compound 84, 7-(3-Hydroxy-8-fluoronaphthyl)-6-fluoro-4-(((S)-4-(2-fluoroacryloyl)-3-carbonitrileethylpiperazine)-1-yl)-2-(((S)-2,2-difluorotetrahydro-1H-pyrinyl-7a(5H)-yl)methoxy)pyridine[2,3-d]lopyrimidine] | ≤ 50 nM |
| C=C(F)C(=O)N1CCN(c2nc(OC[C@@]34CCCN3C[C@H](F)C4)nc3c(F)c(-c4cc(O)cc5cccc(F)c45)c(Cl)cc23)[C@H](C)C1 [Compound 44, 6-Chloro-74(3-hydroxy-8-fluoronaphthyl)-8-fluoro-4-(((R)-4-(2-fluoroacryloyl)-2-methylpiperazine)-1-yl)-2-(((2R,7aS)-2-fluorotetrahydro-1H-pyrincycline-7a(5H)-yl)methoxy)quinazoline] | ≤ 50 nM |
| C=C(F)C(=O)N1CCN(c2nc(OCC34CCCN3CCC4)nc3c(F)c(-c4cccc5cccc(F)c45)ccc23)C[C@@H]1CC#N [Compound 58, 7-(8-fluoronaphthyl)-8-fluoro-4-(((S)-4-(2-fluoroacryloyl)-3-carbonitrileethylpiperazine)-1-yl)-2-((tetrakis Preparation of Hydro-1H-Pyrin-7a(5H)-yl)methoxy)quinazoline] | ≤ 50 nM |
| 7-(8-Chloronaphthalene)-4-(((R)-4-Acryloyl-3-carbonitrileethylpiperazine)-1-yl)-24(1-(N,N-dimethylaminyl)methylcyclopropan-1-yl)methoxy)pyridine[2,3-d]lopyrimidine [Compound 20] | ≤ 50 nM |
| C=C(F)C(=O)N1CCN(c2nc(OC[C@@]34CCCN3C[C@H](F)C4)nc3c(F)c(-c4cccc5cccc(F)c45)c(Cl)cc23)[C@H](C)C1 [Compound 38, 6-Chloro-7-(8-fluoronaphthyl)-8-fluoro-4-(((R)-4-(2-fluoroacryloyl)-2-methylpiperazine)-1-yl)-2-(((2R,7aS)-2-fluorotetrahydro-1H-pyrinyl-7a(5H)-yl)methoxy)quinazoline] | ≤ 50 nM |
| C=C(F)C(=O)N1CCN(c2nc(OCC34CCCN3CCC4)nc3c(F)c(-c4cc(O)cc5cccc(F)c45)ccc23)C[C@@H]1CC#N [Compound 57] | ≤ 50 nM |
| C=C(F)C(=O)N1C2CCC1CN(c1nc(OC[C@@]34CCCN3C[C@H](F)C4)nc3c(F)c(-c4cccc5cccc(F)c45)c(Cl)cc13)C2 [Compound 39, 6-Chloro-7-(8-fluoronaphthyl)-8-fluoro-4-(8-(2-fluoroacryloyl)-3,8-diazabicyclo[3.2.1]octan-3-yl)-2-(((2R,7aS)-2-fluorotetrahydro-1H-pyrincycline-7a(5H)-yl)methoxy)quinazoline] | ≤ 50 nM |
| 6-Chloro-7-(8-fluoronaphthyl)-8-fluoro-4-(((S)-4-acryloyl-3-carbonitrileethylpiperazine)-2-(((S)-2,2- difluorotetrahydro-1H-pyrincyclo-7a(5H)-yl)methoxy)quinazoline [Compound 75] | ≤ 50 nM |
| 6-Chloro-7-(3-hydroxy-8-fluoronaphthyl)-8-fluoro-4-(((S)-4-acryloyl-3-carbonitrileethylpiperazine)-1-yl)-2-(((S)-2,2-difluorotetrahydro-1H-pyrinyl-7a(5H)-yl)methoxy)quinazoline [Compound 76] | ≤ 50 nM |
| 7-(8-Fluoronaphthyl)-8-fluoro-4-(((S)-4-(2-fluoro acryloyl)-3-c arbonitrileethylpiperazine)-1-yl)-2-((tetrakis Hydrogen-1H-pyrinyl-7a(5H)-yl)methoxy)quinazoline [Compound 88] | ≤ 50 nM |
